Assay results: patent US12102646B2, “Compositions for the treatment of fibrosis and inflammation” (Viking Therapeutics, Inc., priority 2018, dated 2024)

What was measured:
Assay type in all cases: in vivo
DIO-NASH mice = experiment: DIO-NASH mice, 8 weeks oral once-daily treatment, liver fibrosis read-outs (Example 1); details: for proportion of animals with reduction in fibrosis score post-treatment: compared with mock treated animals; for liver Picro-Sirius Red (PSR) staining (collagen 1 and 3): terminal liver sections, morphometry, Compound 1 vs mock, Compound 2 vs control- or mock-treated
Procedure: DIO-NASH mice were acclimatized for 3 weeks, with pre-treatment liver biopsy samples collected prior to acclimatization. Mice were randomly assigned to one of five dosing groups, with 12 mice per group. Assigned dosages were: Compound 2 (low): 3 mg/kg; Compound 2 (high): 10 mg/kg; Compound 1: 10 mg/kg; and Elafibranor (30 mg/kg). One group was mock treated with vehicle only as a control. Dosage forms were administered orally once per day. After 8 weeks, animals were sacrificed and liver samples were taken. Liver samples were assayed for total liver hydroxyproline, and subjected to immunohistochemical observation for fibrosis stage as well as the extent of ColaI (Collagen Type Ia) staining. […] Since hydroxyproline is a significant component of collagen, and collagen is the most significant source of hydroxyproline in animal tissues, levels of hydroxyproline provide a reliable proxy for the presence of collagen in a sample.
Terminal liver biopsy samples were also subjected to histochemical staining and immunohistochemical staining. Representative images of liver stained with Picro-Sirius Red (to visualize collagen I and III deposition, red stain) at the end of the treatment period following 8 weeks of treatment with vehicle, low dose Compound 2, high dose Compound 2, Compound 1, or elafibranor are shown in FIG. 2. […] Representative images of liver stained with anti-type I collagen (col1a1) (Southern Biotech, Cat. 131001) at the end of the treatment period following 8 weeks of treatment with vehicle, low dose Compound 2, high dose Compound 2, Compound 1, or elafibranor are shown in FIG. 3. The extent of Col1A1 content was calculated as the total liver Col1A1 staining in terminal liver biopsy samples.
Fibrosis scores were also calculated based on observation of terminal liver biopsy samples.

[1] = test system: diet-induced NASH mouse model; experiment: diet-induced NASH mouse model, 8 weeks dosing, liver/plasma biochemistry and histology (Example 6); details: for total liver galectin-3: compared to vehicle, 8 weeks dosing, FIG. 9
Procedure: (§1) Compound 2 was evaluated in a diet-induced NASH mouse model (See, e.g., Hansen, H. et al., Drug Discovery Today 22(17):1701-1718 (2017) which is hereby incorporated by reference with respect to its disclosure of diet-induced, genetic, chemical, and other NASH mouse models). […] Animals were biopsied pre-study, and only animals with NASH and fibrosis were selected for study. Selected animals were acclimatized and randomized, with experimental groups of 11-12 animals per cohort receiving oral dosing of compound 2 according to the following schedules: Daily dosing for 8 weeks; or daily dosing for week 0-1 followed by weekly dosing for weeks 2-8. At week 8, animals were sacrificed and tissues analyzed. Plasma enzymes (P-ALT (alanine aminotransferase) and P-AST (aspartate aminotransferase)), total plasma triglycerides, and total plasma cholesterol were measured, and terminal necropsy of each liver was carried out, assaying total liver biochemistry including total liver triglycerides, and total liver cholesterol, as well as histological evaluation of NAFLD activity score (done pre- and post-treatment), fibrosis stage (also done pre- and post-treatment), steatosis, Col1a1 level, and galactin-3 level. Tissue samples were preserved for characterization using RNAseq; RNAseq was used to determine expression levels for genes showing differential expression in compound 2-treated vs. vehicle treated animals and/or genes known to be implicated in fibrosis. Additionally, expression levels for genes known to be implicated in inflammation, such as ANXA2, were determined in compound 2-treated vs. vehicle treated animals.

[2] = test system: pro-fibrotic and pro-inflammatory genes (Col1a1, Col3a1, ACTA2, LGALS1, ENPP2, ANXA2); experiment: RNAseq liver gene expression in diet-induced NASH mouse model (Example 6); set-up: concentration or dose not given beside the values
Procedure: as §1

[3] = test system: Dunkin-Hartley guinea pigs with pulmonary fibrosis; experiment: bleomycin-induced pulmonary fibrosis in guinea pigs (Example 2); details: lungs; relative to levels prior to administration; 6-10 weeks
Procedure: Pulmonary fibrosis is induced in healthy male Dunkin-Hartley guinea pigs by administering bleomycin intratracheally. Control subjects are developed by intratracheal administration of saline solution. After the establishment of pulmonary fibrosis in the bleomycin treated animals, test articles comprising any one of Compounds 1-4, or any other compound disclosed herein, are administered to each subject as appropriate for its formulation, daily or as appropriate, for 6-10 weeks. Unilateral lung biopsies are taken prior to the first administration of the test articles and again after sacrifice following the last administration of the test articles. Biopsy samples are analyzed as described in Example I, with the addition of immunohistochemical staining for type III collagen. Lungs from animals treated with the compounds disclosed herein, especially those animals treated with Compound 2, show reduced levels of hydroxyproline, decreased Collagen III staining, and decreased fibrosis score relative to the levels shown prior to the administration of the test articles. Mock treated animals show little or no reduction in fibrosis, hydroxyproline content, or Collagen III content.

[4] = test system: Sprague-Dawley Rats or C57BL mice with hypertrophic skin lesions; experiment: hypertrophic skin lesions in rats or mice (Example 3); details: injection site skin samples; relative to levels prior to administration; 6-10 weeks
Text: Hypertrophic skin lesions are induced in Sprague-Dawley Rats by subcutaneous injection of capsaicin as described in Wallengren, J. et al., Skin Pharm. Appl. Skin Physiol. 15(3):154-165(2002), which is hereby incorporated by reference with respect to its description of the induction of hypertrophic skin lesions in rats; or in C57BL or other appropriate strain mice by subcutaneous administration of CCl4 and/or bleomycin, as described in Alonso-Merino et al., Proc. Nat. Acad. Sci. 113(24):E3451-60 (2016), which is incorporated herein for its disclosure of the induction of fibrotic skin lesions in mice. After the establishment of hypertrophic skin lesions in the capsaicin, CCl4 and/or bleomycin treated animals, test articles comprising any one of Compounds 1-4, or any other compound disclosed herein, are administered to each subject animal as appropriate for its formulation, daily or as appropriate, for 6-10 weeks. Skin biopsies from the injection site are taken prior to the first administration of the test articles and again after sacrifice following the last administration of the test articles. Biopsy samples are analyzed as described in Example I, with the addition of immunohistochemical staining for type III collagen. Injection site skin samples from animals treated with the compounds disclosed herein, especially those animals treated with Compound 2, show reduced levels of hydroxyproline, decreased Collagen III staining, and decreased fibrosis score relative to the levels shown prior to the administration of the test articles. Mock treated animals show little or no reduction in fibrosis, hydroxyproline content, or Collagen III content.

[5] = test system: Agl-/- mice that manifest GSD-3-like hepatic symptoms; experiment: GSD-3-like Agl-/- mice (Example 4); details: liver samples; relative to levels prior to administration; 6-10 weeks
Procedure: (§2) Glucose-6-phosphatase-α deficient mice that manifest GSD-3-like hepatic symptoms, including hypercholesterolemia and hyperlipidemia (Agl−/−, see e.g. Liu, K. M. et al., Mol. Genet. Metabol. 111(4):467-76 (2014)) are treated with test articles comprising any one of Compounds 1-4, or any other compound disclosed herein, administered to each subject as appropriate for its formulation, daily or as appropriate, for 6-10 weeks. Liver biopsies are taken prior to the first administration of the test articles and again after sacrifice following the last administration of the test articles. Biopsy samples are analyzed as described in Example I. Liver samples from animals treated with the compounds disclosed herein, especially those animals treated with Compound 2, show reduced levels of hydroxyproline, decreased Collagen I staining, and decreased fibrosis score relative to the levels shown prior to the administration of the test articles. Mock treated animals show little or no reduction in fibrosis, hydroxyproline content, or Collagen I content.

[6] = test system: Phosphorylase kinase deficient mice (PhKc-/-); experiment: GSD-8/9-like PhKc-/- mice (Example 5); details: liver samples; relative to levels prior to administration; 6-10 weeks
Procedure: as §2, with “Phosphorylase kinase” for “Glucose-6-phosphatase-α”, “GSD-8/9-like” for “GSD-3-like”, “(PhKc−/−, see, e.g., Varsanyi,” for “(Agl−/−, see e.g. Liu, K.”, “Biochem.” for “Mol.”, “18(3-4):247-61 (1980)),” for “Metabol. 111(4):467-76 (2014))”

[7] = test system: nude mice with palmar fascia fibrosis; experiment: palmar fascia fibrosis in nude mice (second Example 2); details: relative to levels prior to administration, 6-10 weeks
Text: Palmar fascia fibrosis is induced in nude mice by introducing fibroblasts from fibrotic cords of Dupuytren's disease patients as described in Stish, L. et al., BMC Musculoskelet. Disord. 16: 138-148 (2015) which is hereby incorporated by reference with respect to its description of the establishment of an animal model system for the study of palmar fascia fibrosis. After the establishment of palmar fascia fibrosis in the fibroblast treated animals, test articles comprising any one of Compounds 1-4, or any other compound disclosed herein, are administered to each subject as appropriate for its formulation, daily or as appropriate, for 6-10 weeks. Unilateral forepaw biopsies are taken prior to the first administration of the test articles and again after sacrifice following the last administration of the test articles. Biopsy samples are analyzed as described in Example I, with the addition of immunohistochemical staining for type III collagen. Palmar fascia from animals treated with the compounds disclosed herein, especially those animals treated with Compound 2, show reduced levels of hydroxyproline, decreased Collagen III staining, and decreased fibrosis score relative to the levels shown prior to the administration of the test articles. Mock treated animals show little or no reduction in fibrosis, hydroxyproline content, or Collagen III content.

[8] = relative to pre-treatment samples, 8 weeks, FIG. 7
[9] = treatment groups relative to untreated controls, week 8, oral
[10] = post-treatment liver, 8 weeks, FIG. 8

Q: Which results are given for Cc1cc(OCP(=O)(OCOC(=O)C(C)(C)C)OCOC(=O)C(C)(C)C)cc(C)c1Cc1ccc(O)c(Cc2ccccc2)c1 [Compound 1]?
A: proportion of animals with reduction in fibrosis score post-treatment (DIO-NASH mice; 8 weeks): higher; liver Picro-Sirius Red (PSR) staining (collagen 1 and 3) (DIO-NASH mice; 8 weeks oral once per day): lower; total liver galectin-3 [1]: reduction; ACTA2 Change versus Vehicle Control ([2]; 8-week dosing, fibrosis marker): −30.5%; ENPP2 Change versus Vehicle Control ([2]; 8-week dosing, fibrosis marker): −44.1%; LGALS1 Change versus Vehicle Control ([2]; 8-week dosing, fibrosis marker): −35.1%

Q: How did the “animals showing increases in fibrosis score post-treatment” value (DIO-NASH mice; 8 weeks) turn out when Cc1cc(OCP2(=O)OCC[C@@H](c3cccc(Cl)c3)O2)cc(C)c1Cc1ccc(O)c(C(C)C)c1 (stereo partly shown) [Compound 2] was run?
A: The value was “No”.

Q: And the “proportion of animals with reduction in fibrosis score post-treatment” value (DIO-NASH mice; 8 weeks)?
A: The value was “higher”.

Q: What about the “total liver Col1A1 content” value (DIO-NASH mice; terminal liver biopsy, anti-type I collagen staining, vs control-treated or mock-treated animals, 8 weeks) of the same compound?
A: Its value is “lower”.

Q: And the “liver Picro-Sirius Red (PSR) staining (collagen 1 and 3)” value (DIO-NASH mice; 8 weeks oral once per day)?
A: Its value is “lower”.

Q: What about the “total liver hydroxyproline levels” value (DIO-NASH mice; vs control-treated (elafibranor) or mock-treated animals, 8 weeks oral once per day, Compound 2 3 and 10 mg/kg) of the same compound?
A: The value was “lower”.

Q: What about the “Collagen III staining” value [3] of the same compound?
A: The value was “decreased”.

Q: And the fibrosis score [3]?
A: The fibrosis score was “decreased”.

Q: What about the levels of hydroxyproline [3] of the same compound?
A: Its levels of hydroxyproline is “reduced”.

Q: What about the toxicity ([1]; 8 weeks oral dosing) of the same compound?
A: Its toxicity is “No significant toxicity”.

Q: And the “total liver galectin-3” value [1]?
A: The value was “reduction”.

Q: What about the “reduction in fibrosis (fibrosis score)” value [1, 8] of the same compound?
A: The value was 50.2%.

Q: What about the reduction in hydroxyproline [1, 8] of the same compound?
A: Its reduction in hydroxyproline is 46.3%.

Q: What about the “reduction in type 1 collagen deposition” value [1, 8] of the same compound?
A: The value was 60.2%.

Q: And the liver cholesterol [1, 9]?
A: Its liver cholesterol is “Significant reductions”.

Q: What about the liver triglycerides [1, 9] of the same compound?
A: The liver triglycerides was “Significant reductions”.

Q: What about the NAS scores ([1]; week 8, oral) of the same compound?
A: Its NAS scores is “significant improvements”.

Q: And the “total lipid content in the liver, reduction” value ([1]; week 8, oral, FIG. 6)?
A: The value was “approximately 80%”.

Q: What about the “ACTA2 Change versus Vehicle Control” value ([2]; 8-week dosing, fibrosis marker) of the same compound?
A: Its value is −37.0%.

Q: And the “Col1a1 Change versus Vehicle Control” value ([2]; 8-week dosing, fibrosis marker)?
A: Its value is −36.3%.

Q: And the “Col3a1 Change versus Vehicle Control” value ([2]; 8-week dosing, fibrosis marker)?
A: Its value is −27.1%.

Q: And the “ENPP2 Change versus Vehicle Control” value ([2]; 8-week dosing, fibrosis marker)?
A: Its value is −56.3%.

Q: What about the “LGALS1 Change versus Vehicle Control” value ([2]; 8-week dosing, fibrosis marker) of the same compound?
A: The value was −64.7%.

Q: What about the “ANXA2 Change versus Vehicle Control” value ([2]; 8-week dosing, inflammatory marker) of the same compound?
A: Its value is −40.3%.

Q: And the “expression of pro-inflammatory gene ANXA2 reduced by” value ([2]; post-treatment liver, 8 weeks)?
A: Its value is 40.3%.

Q: And the “expression of ACTA2 (αSMA) reduced by” value [2, 10]?
A: The value was 37%.

Q: What about the “expression of Col1a1 reduced by” value [2, 10] of the same compound?
A: Its value is 36.3%.

Q: And the “expression of Col3a1 reduced by” value [2, 10]?
A: Its value is 27.1%.

Q: And the “expression of LGALS1 (Galectin 1) reduced by” value [2, 10]?
A: The value was 64.7%.

Q: What about the “Collagen III staining” value [4] of the same compound?
A: Its value is “decreased”.

Q: And the fibrosis score [4]?
A: Its fibrosis score is “decreased”.

Q: What about the levels of hydroxyproline [4] of the same compound?
A: Its levels of hydroxyproline is “reduced”.

Q: And the “Collagen I staining” value [5]?
A: Its value is “decreased”.

Q: And the fibrosis score [5]?
A: The fibrosis score was “decreased”.

Q: And the levels of hydroxyproline [5]?
A: The levels of hydroxyproline was “reduced”.

Q: What about the “Collagen I staining” value [6] of the same compound?
A: Its value is “decreased”.

Q: What about the fibrosis score [6] of the same compound?
A: Its fibrosis score is “decreased”.

Q: What about the levels of hydroxyproline [6] of the same compound?
A: Its levels of hydroxyproline is “reduced”.

Q: What about the “Collagen III staining” value [7] of the same compound?
A: Its value is “decreased”.

Q: And the fibrosis score [7]?
A: The fibrosis score was “decreased”.

Q: What about the levels of hydroxyproline [7] of the same compound?
A: Its levels of hydroxyproline is “reduced”.
